Measurements taken from US20250177354A1, “THERAPEUTIC COMBINATIONS, COMPOSITIONS, AND METHODS FOR DESIGNING AND PRODUCING EN[…]” (Mindstate Design Labs, Inc., priority 2022, published 2025).
“Also recorded” adds a separate entry of the source.

How the values were obtained:
α2-adrenergic receptor = conditions: cited from earlier work
individual = assay: Self-administration of combinations and single-compound controls, subjective reports recorded by the individual; type: in vivo, human
Procedure: In several examples of such administration, the combinations as follows were self-administered, with the subjective reports recorded by the individual during and/or following such administration, as below.
The following example was performed for purposes of and is presented as a control.
In an example, the combination as set forth below was self-administered, with the report as follows.
The working example below was performed for purposes of and is presented as a control.
The working examples below were also performed for purposes of and are presented as controls, using an escalating dose of a single primer alone, applicable to this and other Examples.

I1 Imidazoline Sites = conditions: cited from earlier work; for Selectivity Ratio: I1 relative to α2 (α2 value / I1 value)
subjects [1] = conditions: subjects administered MDMA; cited from earlier work
[2] = cited from earlier work
subjects [3] = conditions: cited from earlier work
I1 = conditions: cited from earlier work
[4] = control: 4.0 mg 5-MeO-MiPT alone
[5] = control: 8.0 mg 5-MeO-MiPT alone
[6] = control: 10.0 mg 5-MeO-MiPT alone

## CC1CNC(Nc2c(Cl)cccc2Cl)=N1 (centres unmarked) [LNP630, (2,6-dichloro-phenyl)-(4-methyl-4,5-dihydro-1H-imidazol-2-yl)-amine]
α2-adrenergic receptor
  affinity or activity for the α2-adrenergic receptor: no detectable affinity or activity

## C1COC(NC(C2CC2)C2CC2)=N1 [Rilmenidine, N-(dicyclopropylmethyl)-4,5-dihydro-1,3-oxazol-2-amine]
individual; control: 1.0 mg Rilmenidine alone, 9:00 pm
  subjective effects (self-report): relaxing, my chest less strained; also recorded: the effect was subtle
I1 Imidazoline Sites
  Selectivity Ratio: 29.51
I1 Imidazoline Sites; I1 relative to α2 receptors
  selectivity for I1 relative to α2 receptors: about 30 fold

## COc1nc(C)nc(Cl)c1NC1=NCCN1 [Moxonidine, 4-Chloro-N-(4,5-dihydro-1H-imidazol-2-yl)-6-methoxy-2-methylpyrimidin-5-amine]
individual; control: 0.2 mg Moxonidine alone, 12:30 pm
  subjective effects (self-report): more focused, probably more centered, less distracted by thinking; also recorded: All very subtle but detectable

## CC1CC(NC(C2CC2)C2CC2)=NC1C (centres unmarked) [LNP509, dicyclopropylmethyl-(4,5-dimethyl-4,5-dihydro-3H-pyrrol-2-yl)-amine]
α2-adrenergic receptor
  affinity or activity for the α2-adrenergic receptor: no detectable affinity or activity

## CC1CCC(Nc2cc(N=[N+]=[N-])c(I)cc2Cl)=N1 (centres unmarked) [LNP906, 2-(5-azido-2-chloro-4-iodo-phenyl-amino)-5-methyl-pyrroline]
α2-adrenergic receptor
  affinity or activity for the α2-adrenergic receptor: no detectable affinity or activity

## CNC(C)Cc1ccc2c(c1)OCO2 (racemic) [MDMA, (RS)-1-(1,3-Benzo-dioxol-5-yl)-N-methylpropan-2-amine]
Subjects [1]
  mental state decoding (mind reading) of social cues: enhanced mental state decoding of positive stimuli, such as friendliness, and impaired the accuracy of mind reading for negative stimuli
[2]; graduate student
  effect on a stutter (case, Shulgin & Shulgin, 1991): dramatic improvements in a stutter
[2]; in vivo
  efficacy in autistic social impairment (systematic review, Chaliha, 2021): efficacious as a pharmacological treatment
Subjects [3]; following administration of MDMA
  subject-reported sociability: increases in sociability
Subjects [3]; subjects administered MDMA
  brain imaging responses to facial expressions: attenuated responses to angry facial expressions and enhanced responses to happy expressions

## Cc1c(Cl)cccc1NC1=NCC(C)C1 (centres unmarked) [LNP599]
α2-adrenergic receptor
  affinity or activity for the α2-adrenergic receptor: no detectable affinity or activity
I1
  affinity for I1: nanomolar affinity

## COc1ccc2[nH]cc(CCN(C)C(C)C)c2c1 [Example 5-MeO-MiPT, N-isopropyl-5-methoxy-N-methyltryptamine]
individual; [4]
  physical discomfort (self-report): my brain was so heavy and tired
  subjective effects (self-report): My emotion is quite neutral, not much different from the normal state
individual; control: 6.0 mg 5-MeO-MiPT alone
  subjective effects (self-report): generally emotionally neutral
individual; [5]
  physical discomfort (self-report): my body was uncoordinated, and I trembled a lot
  subjective effects (self-report): There was no emergence of a stable mental state; also recorded: There was not much feeling
individual; [6]
  physical discomfort (self-report): My stomach was so upset that I had to vomit
  subjective effects (self-report): void of emotion and mental activities

## CC(Oc1c(Cl)cccc1Cl)C1=NCCN1 (centres unmarked) [Lofexidine]
I1 Imidazoline Sites
  Selectivity Ratio: 3.63

## CC1CCC(Nc2ccc(I)cc2Cl)=N1 (centres unmarked) [LNP911, 2-(2-chloro-4-iodo-phenylamino)-5-methyl-pyrroline]
α2-adrenergic receptor
  affinity or activity for the α2-adrenergic receptor: no detectable affinity or activity
